Assay results published in BindingDB's records for doi:10.1016/0024-3205(84)90540-x (Schering-Plough, 1984).
Where a name gives a salt, the structure may show the parent alone.

How the values were obtained:
D(1A) dopamine receptor = D(1A) dopamine receptor (Rattus norvegicus, UniProt P18901)
D(2) dopamine receptor = D(2) dopamine receptor (Rattus norvegicus, UniProt P61169)
D(2) dopamine receptor, sequence (P61169 whole entry): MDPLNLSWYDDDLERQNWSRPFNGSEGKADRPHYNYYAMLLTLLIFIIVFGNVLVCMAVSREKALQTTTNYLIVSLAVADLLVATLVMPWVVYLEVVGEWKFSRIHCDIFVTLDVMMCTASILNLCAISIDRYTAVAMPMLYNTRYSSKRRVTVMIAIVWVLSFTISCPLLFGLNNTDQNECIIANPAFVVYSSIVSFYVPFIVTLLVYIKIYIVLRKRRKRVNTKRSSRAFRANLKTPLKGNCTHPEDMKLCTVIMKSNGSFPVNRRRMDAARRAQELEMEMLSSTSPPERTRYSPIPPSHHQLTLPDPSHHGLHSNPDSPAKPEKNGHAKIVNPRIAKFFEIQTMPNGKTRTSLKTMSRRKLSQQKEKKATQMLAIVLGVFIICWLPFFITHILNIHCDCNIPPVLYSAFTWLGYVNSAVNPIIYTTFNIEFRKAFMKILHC

D(1A) dopamine receptor, sequence (P18901 whole entry): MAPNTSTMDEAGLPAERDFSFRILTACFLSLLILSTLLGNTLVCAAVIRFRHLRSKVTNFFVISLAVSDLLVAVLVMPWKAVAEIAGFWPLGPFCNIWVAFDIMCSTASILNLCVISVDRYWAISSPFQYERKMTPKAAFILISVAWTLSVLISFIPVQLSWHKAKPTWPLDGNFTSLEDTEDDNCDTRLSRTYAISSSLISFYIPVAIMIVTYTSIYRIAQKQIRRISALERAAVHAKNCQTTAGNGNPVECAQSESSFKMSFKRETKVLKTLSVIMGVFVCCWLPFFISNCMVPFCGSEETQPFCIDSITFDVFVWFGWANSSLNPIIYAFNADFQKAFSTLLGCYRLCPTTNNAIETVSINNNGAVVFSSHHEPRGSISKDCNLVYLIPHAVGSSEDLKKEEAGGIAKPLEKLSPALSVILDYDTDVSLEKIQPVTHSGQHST

| SMILES | Ki (D(1A) dopamine receptor) [nM] | Ki (D(2) dopamine receptor) [nM] |
| --- | --- | --- |
| CC[C@@H](CO)NC(=O)[C@@H]1C=C2c3cccc4c3c(cn4C)C[C@H]2N(C)C1 | 217 | 116 |
| OCCN1CCN(CCCN2c3ccccc3Sc3ccc(C(F)(F)F)cc32)CC1 [2-[4-[3-[2-(trifluoromethyl)phenothiazin-10-yl]propyl]piperazin-1-yl]ethanol;hydrochloride] | 11.2 | – |
| O=C(c1ccc(F)cc1)C1CCN(CCn2c(=O)[nH]c3ccccc3c2=O)CC1 [3-(2-{4-[(4-fluorophenyl)carbonyl]piperidin-1-yl}ethyl)-1,2,3,4-tetrahydroquinazoline-2,4-dione] | 1010 | 397 |
| CN1C2CC(OC(=O)C(CO)c3ccccc3)CC1C1OC12 (stereo unspecified) [3-hydroxy-2-phenyl-propionic acid 9-methyl-3-oxa-9-aza-tricyclo[3.3.1.0*2,4*]non-7-yl ester] | > 10000 | > 10000 |
| OCCN1CCN(CCCN2c3ccccc3Sc3ccc(Cl)cc32)CC1 [4-[3-(2-chlorophenothiazin-10-yl)propyl]-1-piperazineethanol] | 29.9 | 1.3 |
| NCCCC(=O)O [4-amino-n-[2,3-3H]butyric acid] | > 10000 | > 10000 |
| OCCC1CCN(CCC=C2c3ccc(F)cc3Sc3ccc(C(F)(F)F)cc32)CC1 [CAS_60197-32-2] | 2.9 | 1 |
| N[C@@H](CCC(=O)O)C(=O)O [L-Glutamic acid] | > 10000 | > 10000 |
| NCC(O)c1ccc(O)c(O)c1 (stereo not drawn) [Noradrenaline,(+)] | > 10000 | > 10000 |
| NCCc1c[nH]cn1 [[3H]histamine] | > 10000 | > 10000 |
| OCCC1CCN(CC/C=C2\c3ccc(F)cc3Sc3ccc(C(F)(F)F)cc32)CC1 [trans piflutixol-(E)] | 95 | 73 |
